Data published in US8226965B2, “Methods of treating fungal, yeast and mold infections” (priority 2008, dated 2012).

Columns and labels:
[1] = system: Trichophyton rubrum, Trichophyton mentagrophytes and Epidermophyton floccosum; test: Spontaneous resistance development, overall; format: cell-based
Method: Phenotypically resistant isolates were tested for MICs and compared to parental MICs.

[2] = system: T. rubrum mycelia and microconidia; test: Time-kill experiments; format: cell-based, Trichophyton rubrum; settings: for reduction in colony counts: 16×MIC, up to 24 hours, hyphae or microconidia in water (nongrowth)
Method: Time-kill experiments. […] Part of the conidial suspension was pelleted and resuspended in RPMI 1640 medium and grown for 16-18 hours overnight at room temperature to allow germination of microconidia. After germination, the hyphae were collected by centrifugation and resuspended in distilled water. […] Colony-forming units were counted after four days of incubation at 35° C.

[3] = cited from earlier work

SMILES	stable resistance of recovered isolates [1]	reduction in colony counts [2]	activity on nongrowing mycelia and conidia ([2]; FIG. 10)	solubility in dichloromethane [3]	solubility in methanol [3]
Cc1cc(C2CCCCC2)n(O)c(=O)c1 [Ciclopirox]	none of the isolates were stably resistant	None of the other compounds significantly reduced colony counts	no activity against the conidial form		
CN(C/C=C/C#CC(C)(C)C)Cc1cccc2ccccc12.Cl [Terbinafine hydrochloride]				freely soluble	freely soluble
CN(C/C=C/C#CC(C)(C)C)Cc1cccc2ccccc12 [Terbinafine]	none of the isolates were stably resistant	None of the other compounds significantly reduced colony counts			
